Columns and labels:
Format in all cases: cell-based
DU-145 = assay: SRB anticancer activity screening, DU-145; parameters: Inhibition % for cancer cells DU-145: dose or concentration left out as unconfirmed; details: DU-145 human prostate cancer, 48 hours
Procedure: (§1) A-549 (human lung carcinoma), HT-29 (human colon adenocarcinoma), DU145 (human prostate cancer), SK-MEL-2 (human malignant melanoma) and SK-OV-3 (human ovary malignant ascites) cells were used to evaluate the anticancer activity of the test compounds. All the cancer cells are all tumors cells derived from human and were acquired from the Korean Cell Line Bank. RP MI 1640 medium containing 10% fetal bovine serum was used as a culture medium. Cell culturing was performed in a constant-temperature, constant-humidity incubator (37° C., 5% CO2). Subculturing was performed once in 3 days, using 0.25% trypsin-1 mM EDTA.
(§2) The sulforhodamine B ([…]) assay, which was developed in 1989 by the National Cancer Institute to measure in vitro anticancer activity of drugs, was employed.
(§3) The subcultured cells were transferred using trypsin-EDTA solution to a 96-well microplate, at 5×10^3 cells per well, and then cultured in a CO2 incubator for 24 hours. After removing the medium and adding a solution of the test compound (100 μL) diluted 4-fold, the cells were cultured for 48 hours. […] After completely lysing the cells by adding 10 mM Trizma base (pH 10.3, 200 μL) to each well, absorbance was measured at 520 nm.
(§4) In order to evaluate the activity of the test compound for the cancer cells, GI50 was calculated according to Equation 1 or 2. […]
(§5) Then, IC50 value was calculated from the inhibitory concentration.

HT-29 = assay: SRB anticancer activity screening, HT-29; parameters: Inhibition % for cancer cells HT-29: dose or concentration left out as unconfirmed; details: HT-29 human colon adenocarcinoma, 48 hours
Procedure: as §1, §2, §3, §4, §5

HCT-116 = assay: SRB anticancer activity screening, HCT-116; parameters: Inhibition % for cancer cells HCT-116: dose or concentration left out as unconfirmed; details: HCT-116 human colon cancer, 48 hours
A375P = assay: SRB anticancer activity screening, A375P; parameters: Inhibition % for cancer cells A375P: dose or concentration left out as unconfirmed; details: A375P human melanoma cancer, 48 hours

Compound	Inhibition % for cancer cells DU-145 (DU-145)	Inhibition % for cancer cells HT-29 (HT-29)	Inhibition % for cancer cells HCT-116 (HCT-116)	Inhibition % for cancer cells A375P (A375P)	IC50 (DU-145; read-out: IC50 (μM) for cancer cells DU-145)	IC50 (HT-29; read-out: IC50 (μM) for cancer cells HT-29)	IC50 (HCT-116; read-out: IC50 (μM) for cancer cells HCT-116)	IC50 (A375P; read-out: IC50 (μM) for cancer cells A375P)
Cc1ccc(N2CCc3c(N)nn(C(=O)CCN4CCN(c5ccc(Cl)cc5)CC4)c3C2=O)cc1 [Compound 9, 3-amino-1-[{4-(4-chlorophenyl)piperazin-1-yl}propanoyl]-6-N-(p-tolyl)-4,5,6,7-tetrahydro-1-H-pyrazolo[3,4-c]pyridin-7-one]	80.02%	90.54%	92.19%	95.03%	–	–	–	–
Cc1ccc(N2CCN(CCC(=O)n3nc(N)c4c3C(=O)N(Cc3ccccc3)CC4)CC2)c(C)c1 [Compound 17, 3-amino-1-[{4-(2,4-dimethylphenyl)piperazin-1-yl}propanoyl]-6-N-benzyl-4,5,6,7-tetrahydro-1H-pyrazolo[3,4-c]pyridin-7-one]	–	–	–	–	0.4 ± 0.02 µM	0.15 ± 0.01 µM	0.34 ± 0.01 µM	0.34 ± 0.03 µM

Source: US8383631B2, “1,6-disubstituted-3-amino-4,5,6,7-tetrahydro-1H-pyrazolo[3,4-C]pyridin-7-one compounds and preparation thereof” (Korea Institute of Science and Technology, priority 2010, dated 2013)
